# Positions count from the first letter of the chain named.
# Legend:
# ERα W383A = target: T1, ERα W383A (Homo sapiens, UniProt P03372, W383A); experiment: Estrogen Receptor luciferase assay in HEK293 cells transfected with ERα W383A; assay type: cell-based; details: HEK293, Fig 6A
# T1 construct: expressed in transfected cells; host or cells: HEK293
# T1 sequence (P03372 1-595 W383A): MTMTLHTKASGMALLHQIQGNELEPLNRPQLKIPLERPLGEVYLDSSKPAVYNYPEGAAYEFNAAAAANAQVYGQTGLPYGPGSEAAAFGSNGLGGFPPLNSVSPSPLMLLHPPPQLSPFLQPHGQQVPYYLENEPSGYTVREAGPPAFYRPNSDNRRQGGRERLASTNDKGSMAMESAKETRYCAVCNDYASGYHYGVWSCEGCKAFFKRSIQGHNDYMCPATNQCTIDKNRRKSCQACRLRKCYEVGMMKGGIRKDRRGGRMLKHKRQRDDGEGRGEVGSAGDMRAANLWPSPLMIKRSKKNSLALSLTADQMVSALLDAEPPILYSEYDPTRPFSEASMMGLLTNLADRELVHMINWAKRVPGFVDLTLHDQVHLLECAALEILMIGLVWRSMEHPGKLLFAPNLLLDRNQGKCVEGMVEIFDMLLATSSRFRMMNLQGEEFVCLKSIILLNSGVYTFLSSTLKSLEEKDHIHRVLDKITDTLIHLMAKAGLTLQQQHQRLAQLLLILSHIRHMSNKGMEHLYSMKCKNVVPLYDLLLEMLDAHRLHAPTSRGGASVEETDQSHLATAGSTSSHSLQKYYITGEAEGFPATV
# From the text: To obtain a eukaryotic vector expressing only the ER-α nuclear receptor, a construct was designed by cloning a KpnI-BamHI fragment from plasmid pEGFP-C1-ERα containing the ERα coding sequence that includes a stop signal into the pEGFP-N3 plasmid (Clontech Laboratories, Palo Alto, CA) under the control of the CMV promoter. […] For mock transfections, pEGFP-N3 plasmid was digested with BglII and NotI and religated after polishing DNA ends to remove GFP coding sequence. Plasmid sequence was confirmed by automatic sequencing. Prior to transfection, cells were seeded in 48 well plates at density of 1.5 x 10^4 cells/well and incubated for 24 h to reach a cell confluence of 80–90%. […] MCF-7 cells, which endogenously express ERα receptor, were transfected with p3xERRE/ERE-luciferase plus the pRLTK Renilla luciferase control plasmid (95:5). Firefly and Renilla luciferase activities were measured using the Dual Luciferase Assay System (Promega, Madison, WI, USA), following a standard protocol using a Sirius L luminometer (Berthold Technologies, Bad Wildbad, Germany). Data were expressed as relative changes in luciferase activity and normalized to 100%.
# Plasmids for the expression of the ERα W383A and ER-α W383S mutated receptors were constructed by the quick change site directed mutagenesis method using plasmid pEGFP-N-ERα as template.
# estrogen receptor = target: T2, estrogen receptor (Homo sapiens, UniProt P03372); experiment: Estrogen Receptor luciferase assay in MCF-7 cells (endogenous ER); assay type: cell-based; details: MCF-7 transfected with p3xERRE/ERE-luciferase, Fig 3C
# T2 construct: MCF-7 cells, which endogenously express ERα receptor; endogenous in cells; host or cells: MCF-7
# T2 sequence (P03372 1-595): T1 sequence (P03372 1-595 W383A) with A383W
# From the text: To obtain a eukaryotic vector expressing only the ER-α nuclear receptor, a construct was designed by cloning a KpnI-BamHI fragment from plasmid pEGFP-C1-ERα containing the ERα coding sequence that includes a stop signal into the pEGFP-N3 plasmid (Clontech Laboratories, Palo Alto, CA) under the control of the CMV promoter. This construction was termed pEGFP-N-ERα, and although it encoded both human ERα receptor and GFP protein, only the former is expressed. For mock transfections, pEGFP-N3 plasmid was digested with BglII and NotI and religated after polishing DNA ends to remove GFP coding sequence. Plasmid sequence was confirmed by automatic sequencing. Prior to transfection, cells were seeded in 48 well plates at density of 1.5 x 10^4 cells/well and incubated for 24 h to reach a cell confluence of 80–90%. […] MCF-7 cells, which endogenously express ERα receptor, were transfected with p3xERRE/ERE-luciferase plus the pRLTK Renilla luciferase control plasmid (95:5). Firefly and Renilla luciferase activities were measured using the Dual Luciferase Assay System (Promega, Madison, WI, USA), following a standard protocol using a Sirius L luminometer (Berthold Technologies, Bad Wildbad, Germany). Data were expressed as relative changes in luciferase activity and normalized to 100%.
smiles,measurement,setting,value
Fc1ccc(NC(=S)c2ccc(NC(=S)c3ccc(F)cc3)cc2)cc1 [Compound 18],"Activation of ER dependent transcription, ERα W383A vs wild type",ERα W383A,less active
same,Transcriptional (luciferase) activity in MCF-7,estrogen receptor,significantly higher transcriptional activity compared to estradiol
